Assay results taken from paper PMC7059030, “Design, Synthesis, Molecular Modeling Studies and Biological Evaluation of N′-Arylidene-6-(benzyloxy)-4-oxo-1,4-dihydroquinoline-3-carbohydrazide Derivatives as Novel Anti-HCV Agents” (Iranian Journal of Pharmaceutical Research : IJPR, 2019).
Where two headings read alike, the source gives them in different places.

Tests used:
[1] = tested on: HCV (JFH-1 strain) in Huh7.5 cells; assay: Cell-based HCV replicon assay (RT-qPCR of HCV RNA in infected Huh7.5 cells); design: species or system hepatitis C virus; settings: for EC50: Huh7.5 cells infected with HCV (JFH-1), three days, HCV RNA by quantitative RT-PCR; for SI = CC50/EC50: selectivity index, CC50 (Huh-7.5, XTT) / EC50 (HCV replicon)
Procedure: The plasmid encoding the full genome of […] (JFH-1) strain (kindly provided by Wakita T) was used for in-vitro transcription to produce approximately high titer stocks of cell culture-produced virus (HCVcc) as previously described ([37]).
Huh7.5 cells were seeded into 48-well plates at a density of 3×10^5 cells per well with DMEM containing 10% FBS. After 24 h, huh7.5 cells were infected with HCV viral stock ([…]) for 3 h, at which point the infection was stopped and each well was washed three times by sterile PBS to removed non-penetrated virions and then the fresh medium was added to each well. Subsequently, the infected cells were treated with newly synthesized compounds at different concentrations and the sofosbuvir (Sigma-Aldrich, USA) as a positive control. After three days inoculation, the supernatant medium was collected and the viral RNA was extracted using viral QIAamp viral RNA mini kit (Qiagen, Düsseldorf, Germany), according to the manufacturer protocol. Then, the amount of HCV replicon RNA was determined using Quantitative RT-PCR assay by hepatitis C virus viral load kit (Gene Proof, Czech Republic, with CE, IVD) according to the manufacturer’s instruction.
The 50% effective concentration (EC50) was determined as the ratio of the normalized HCV RNA amount in treated samples relative to the controls (the samples without compound treatment) using GraphPad Prism5.0 software (GraphPad Software, San Diego, CA).
Target compounds 13-25 were evaluated in a cell-based viral replication surrogate assay known as the replicon system ([39]). We hypothesized that our quinolone analogues will inhibit NS5B, likely via binding to the active site. To test this hypothesis, FDA-approved active site binding NI, sofosbuvir, was used as a control compound. In parallel, compounds were also evaluated for their cytotoxic effects in the same cell line to ensure that the activity is completely devoid of cytotoxicity effects. The biological results are expressed as EC50, CC50 and SI (selectivity index, given by the CC50/EC50 ratio).

XTT cytotoxicity assay = type: cell-based; settings: human, Huh-7.5 cells
Procedure: The cytotoxicity of compounds to Huh-7.5 cells was measured in parallel with the HCV replication assay based on the cleavage of the yellow tetrazolium salt XTT® (sodium 3-[1 (phenylaminocarbonyl)-3, 4-tetrazolium]-bis(4-methoxy-6-nitro)benzene sulfonic acid) to generate an orange formazan dye by metabolic function of alive and active cells. Cells were treated with various concentrations ([…]) of compounds and incubated for 72 hours.
The cell cytotoxicity was determined using XTT proliferation assay kit (Sigma-Aldrich) following the manufacturer’s instructions. The 50% cytotoxic concentration (CC50) was defined as the concentration of compound that reduced cell proliferation by 50%.

[2] = Hepatitis C virus, Huh7.5, 72 h, read-out: EC50
[3] = Hepatitis C virus, Huh7.5, 72 h

SMILES	EC50 [1, 2]	CC50 at 72 h (XTT cytotoxicity assay)	melting point	SI = CC50/EC50 [1]	EC50 [1, 3]	EC50 [1]
O=C(NN=Cc1cccc(F)c1)c1c[nH]c2ccc(OCc3ccccc3)cc2c1=O [Compound 19, 6-(Benzyloxy)-N′-(3-fluorobenzylidene)-4-oxo-1,4-dihydroquinoline-3-carbohydrazide]	> 200 µM	> 200 µM	305 °C (dec.)	–	–	–
COc1ccc(C=NNC(=O)c2c[nH]c3ccc(OCc4ccccc4)cc3c2=O)cc1 [Compound 18, 6-(Benzyloxy)-N′-(4-methoxybenzylidene)-4-oxo-1,4-dihydroquinoline-3-carbohydrazide]	–	> 200 µM	154 °C (dec.)	> 2	–	–
O=C(NN=Cc1cccc(Cl)c1)c1c[nH]c2ccc(OCc3ccccc3)cc2c1=O [Compound 21, 6-(Benzyloxy)-N′-(3-chlorobenzylidene)-4-oxo-1,4-dihydroquinoline-3-carbohydrazide]	35 µM	90 µM	291 °C (dec.)	2.5	–	–
Cc1ccccc1C=NNC(=O)c1c[nH]c2ccc(OCc3ccccc3)cc2c1=O [Compound 23, 6-(Benzyloxy)-N′-(2-methylbenzylidene)-4-oxo-1,4-dihydroquinoline-3-carbohydrazide]	70 µM	160 µM	290 °C (dec.)	2.2	–	–
Cc1cccc(C=NNC(=O)c2c[nH]c3ccc(OCc4ccccc4)cc3c2=O)c1 [Compound 22, 6-(Benzyloxy)-N′-(3-methylbenzylidene)-4-oxo-1,4-dihydroquinoline-3-carbohydrazide]	45 µM	100 µM	310 °C (dec.)	2.2	–	–
COc1ccccc1C=NNC(=O)c1c[nH]c2ccc(OCc3ccccc3)cc2c1=O [Compound 25, 6-(Benzyloxy)-N′-(2-methoxybenzylidene)-4-oxo-1,4-dihydroquinoline-3-carbohydrazide]	> 200 µM	> 200 µM	299 °C (dec.)	–	–	–
CSc1ccc(C=NNC(=O)c2c[nH]c3ccc(OCc4ccccc4)cc3c2=O)cc1 [Compound 14, 6-(Benzyloxy)-N′-(4-(methylthio)benzylidene)-4-oxo-1,4-dihydroquinoline-3-carbohydrazide]	–	> 200 µM	160 °C (dec.)	–	> 200 µM	–
COc1cccc(C=NNC(=O)c2c[nH]c3ccc(OCc4ccccc4)cc3c2=O)c1 [Compound 24, 6-(Benzyloxy)-N′-(3-methoxybenzylidene)-4-oxo-1,4-dihydroquinoline-3-carbohydrazide]	120 µM	> 200 µM	280 °C (dec.)	>1.8	–	–
O=C(NN=Cc1ccc(Cl)cc1)c1c[nH]c2ccc(OCc3ccccc3)cc2c1=O [Compound 16, 6-(Benzyloxy)-N′-(4-chlorobenzylidene)-4-oxo-1,4-dihydroquinoline-3-carbohydrazide]	> 200 µM	> 200 µM	329 °C (dec.)	–	–	–
O=C(NN=Cc1ccc(F)cc1)c1c[nH]c2ccc(OCc3ccccc3)cc2c1=O [Compound 15, 6-(Benzyloxy)-N′-(4-fluorobenzylidene)-4-oxo-1,4-dihydroquinoline-3-carbohydrazide]	> 200 µM	> 200 µM	305 °C (dec.)	–	–	–
Cc1ccc(C=NNC(=O)c2c[nH]c3ccc(OCc4ccccc4)cc3c2=O)cc1 [Compound 17, 6-(Benzyloxy)-N′-(4-methylbenzylidene)-4-oxo-1,4-dihydroquinoline-3-carbohydrazide]	–	> 200 µM	330 °C (dec.)	–	> 200 µM	–
O=C(NN=Cc1ccccc1)c1c[nH]c2ccc(OCc3ccccc3)cc2c1=O [Compound 13, N′-Benzylidene-6-(benzyloxy)-4-oxo-1,4-dihydroquinoline-3-carbohydrazide]	> 200 µM	> 200 µM	130 °C (dec.)	–	–	–
CC(C)OC(=O)[C@H](C)N[P@](=O)(OC[C@H]1O[C@@H](n2ccc(=O)[nH]c2=O)[C@](C)(F)[C@@H]1O)Oc1ccccc1 [Sofosbuvir, sofosbuvir, reference compound]	5 µM	> 500 µM	–	> 100	–	–
O=C(NN=Cc1ccccc1F)c1c[nH]c2ccc(OCc3ccccc3)cc2c1=O [Compound 20, 6-(Benzyloxy)-N′-(2-fluorobenzylidene)-4-oxo-1,4-dihydroquinoline-3-carbohydrazide]	–	> 200 µM	324 °C (dec.)	> 2	70 µM	120 µM
